As a reminder, the melting point is the temperature, or range, at which the solid turns liquid.

From patent publication US20070099854A1, “Use of pentadienoic acid derivatives for the treatment of hyperuricemia” (priority 2003, published 2007) come the findings set out here.

The subject of series [1] is plasma uric acid concentration. The series can be described thus: Hypouricemic effect of compound A in healthy male volunteers, single oral administration. In kind it is in vivo, human (healthy male volunteers). The settings on record: at 24 hours. How it is done: Hypouricemic effect of compound A in healthy male volunteers
Forty-eight healthy male volunteers received orally either EMD or a placebo as a single administration in the morning. Six doses were administered 50 mg, 100 mg, 200 mg, 400 mg, 800 mg and 1200 mg once daily. In each group of dose, 6 subjects received compound A and 2 subjects received a placebo. Plasma uric acid concentrations were assessed in all dose groups.
The drop of plasma uric acid concentration was around 45% for the lowest tested dose (50 mg) and the maximum effect was observed from the 800 mg dose (80%).
FIG. 1: Mean plasma uric acid concentration in each group of dose before and 24 hours after drug intake (single dose) in subjects receiving compound A.

Turning to `CCOC(=O)/C=C(C)/C=C/C1=Cc2ccccc2OC1` [Example 3a], the melting point was 110 to 112 °C.

`CC(/C=C/C1=Cc2ccccc2OC1)=C\C(=O)O` [Example 3b] registered a melting point of 226 to 228 °C.

For `CC(/C=C/C1=Cc2ccccc2OC1(C)C)=C\C(=O)O` [Example 4b], the melting point lay within 164 to 166 °C.

Take `CC(=C/C(=O)O)/C=C/C1=Cc2ccccc2OC1(C)C` [Example 5b]: the melting point was determined as 176 °C.

In the case of `CC(/C=C/C1=C(c2ccccc2)c2ccccc2OC1)=C\C(=O)O` [Example 7b], the melting point lay within 258 to 260 °C.

Regarding `CC1=C(/C=C/C(C)=C/C(=O)O)COc2ccccc21` [Example 11b], the melting point lay within 216 to 218 °C.

On to `CC(=C/C(=O)O)/C=C/C1=Cc2ccccc2OC1` [Example 12b], for which the melting point fell in the range of 224 to 226 °C.

For `CC(/C=C/C1=Cc2ccccc2OC1c1ccccc1)=C\C(=O)O` (centres unmarked) [Example 14b], the melting point is 200 to 202 °C.

As to `COc1ccc2c(c1)C(/C=C/C(C)=C/C(=O)O)=CC(C)(C)CO2` [compound A, (2E,4E)-5-(3,3-dimethyl-7-methoxy-2,3-dihydrobenzoxepin-5-yl)-3-methylpenta-2,4-dienoic acid], in series [1] (50 mg (lowest tested dose)), the “drop of plasma uric acid concentration” value is listed as “around 45%”. Further, the “change in plasma uric acid concentration” value in series [1] (all dose groups 50-1200 mg) is given as “dose dependant decrease”. The “drop of plasma uric acid concentration (maximum effect)” value in series [1] (from the 800 mg dose) amounted to 80%.
